The values below are quoted from earlier work in patent publication US8278268B2, “Combination therapy comprising glucose reabsorption inhibitors and PPAR modulators” (Ortho-McNeil Pharmaceutical, Inc., priority 2001, dated 2012).

SMILES strings stand for the structures. Read-outs that look alike come from different tables or passages of the source.

What is called Km is the concentration of substrate that gives half-maximal velocity.

In one data set the test system is SGLT2 (SAAT1). The conditions noted are these: cited from earlier work; for Km: for D-glucose.
Another data set has as its target SGLT1 (Homo sapiens, UniProt P13866). The conditions noted are these: read-out: Km in vitro; Sm. Intestine; stoichiometry 2:1; for D-glucose; cited from earlier work.
A further data set deals with SGLT in the kidney. The conditions noted are these: cited from earlier work.
In the next data set the target is T1, SGLT-2 in the kidney (Homo sapiens, UniProt P31639).
T1 sequence (P31639 1-672): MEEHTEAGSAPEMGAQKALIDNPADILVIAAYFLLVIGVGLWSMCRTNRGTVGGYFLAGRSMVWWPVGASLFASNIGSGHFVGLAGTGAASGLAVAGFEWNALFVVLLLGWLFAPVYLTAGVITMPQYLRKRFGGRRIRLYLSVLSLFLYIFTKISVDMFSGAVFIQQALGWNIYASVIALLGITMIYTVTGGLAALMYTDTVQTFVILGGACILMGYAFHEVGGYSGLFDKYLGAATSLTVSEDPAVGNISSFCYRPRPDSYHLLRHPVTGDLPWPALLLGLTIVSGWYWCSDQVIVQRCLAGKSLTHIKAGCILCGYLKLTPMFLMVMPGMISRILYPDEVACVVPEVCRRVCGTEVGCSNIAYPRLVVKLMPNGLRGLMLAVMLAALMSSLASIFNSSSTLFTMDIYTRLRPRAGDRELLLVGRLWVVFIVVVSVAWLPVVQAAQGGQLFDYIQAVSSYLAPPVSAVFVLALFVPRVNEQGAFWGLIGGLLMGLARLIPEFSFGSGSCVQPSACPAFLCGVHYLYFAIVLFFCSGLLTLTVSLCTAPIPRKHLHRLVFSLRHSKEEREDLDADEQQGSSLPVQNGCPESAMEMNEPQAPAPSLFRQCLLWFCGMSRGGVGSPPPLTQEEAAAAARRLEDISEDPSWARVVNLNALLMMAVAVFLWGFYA
The conditions noted are these: compared with T-1095; cited from earlier work.

The test system of data set [1] is Na^+-glucose co-transporters located in chorionic membrane of the intestine and the kidney. As to conditions: cited from earlier work.
The conditions of data set [2]: subcutaneous daily administration; cited from earlier work.

SGLT1, sequence (P13866 whole entry, species assumed): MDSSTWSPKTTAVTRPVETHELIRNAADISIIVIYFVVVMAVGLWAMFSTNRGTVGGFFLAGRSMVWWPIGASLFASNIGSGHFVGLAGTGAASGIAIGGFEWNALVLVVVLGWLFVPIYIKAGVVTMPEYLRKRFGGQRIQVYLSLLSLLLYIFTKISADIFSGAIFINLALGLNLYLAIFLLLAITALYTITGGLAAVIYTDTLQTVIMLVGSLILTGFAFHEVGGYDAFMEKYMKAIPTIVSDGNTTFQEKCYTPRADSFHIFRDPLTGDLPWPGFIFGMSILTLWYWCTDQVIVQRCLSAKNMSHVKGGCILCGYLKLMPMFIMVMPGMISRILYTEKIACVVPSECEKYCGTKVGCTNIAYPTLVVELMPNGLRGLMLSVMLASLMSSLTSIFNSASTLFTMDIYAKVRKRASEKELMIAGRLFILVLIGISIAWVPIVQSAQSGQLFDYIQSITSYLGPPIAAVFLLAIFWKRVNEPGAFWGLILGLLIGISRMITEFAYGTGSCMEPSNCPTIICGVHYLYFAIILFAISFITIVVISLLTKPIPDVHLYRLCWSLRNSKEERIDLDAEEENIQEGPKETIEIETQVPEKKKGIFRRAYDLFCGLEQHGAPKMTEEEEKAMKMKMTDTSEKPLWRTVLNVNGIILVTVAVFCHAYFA

Regarding `O=C[C@H](O)[C@@H](O)[C@H](O)[C@H](O)CO` [D-glucose], the “TmG in vitro (maximal transport rate)” value is given as 7.9 pmol/min/mm with SGLT2 (SAAT1) (Kidney (S1, S3), stoichiometry 2:1) and 83 pmol/min/mm in the data set on SGLT2 (SAAT1) (Kidney (S3), stoichiometry 1:1). The Km was 390 µM in the data set with SGLT2 (SAAT1) (Kidney (S1, S3), stoichiometry 2:1, read-out: Km in vitro); 300 µM in the data set with SGLT2 (SAAT1) (Kidney (S1, S3), stoichiometry 2:1, read-out: Km in vivo); 1640 µM in the data set on SGLT2 (SAAT1) (Kidney (S3), stoichiometry 1:1, read-out: Km in vitro); 6000 µM in the data set on SGLT2 (SAAT1) (Kidney (S3), stoichiometry 1:1, read-out: Km in vivo); 100 µM on SGLT1.
For the compound `Cc1cc(O)c(C(=O)CCc2ccc3occc3c2)c(OC2OC(CO)C(O)C(O)C2O)c1` (centres unmarked) [T-1095A], the “inhibition of SGLT in the kidney” value in the data set with SGLT in the kidney is “selective and potent inhibitor of SGLT in the kidney”. The “inhibition of SGLT-2 in the kidney” value on SGLT-2 in the kidney is listed as “also a better substrate for the inhibition of SGLT-2 in the kidney”.
With `O=C(CCc1ccc(O)cc1)c1c(O)cc(O)cc1O[C@@H]1O[C@H](CO)[C@@H](O)[C@H](O)[C@H]1O` [phlorizin], the “inhibition of Na+-glucose co-transporters” value in data set [1] is recorded as “inhibits Na^+-glucose co-transporters”. Moreover, in data set [2], the plasma glucose level result is “the glucose level in a plasma is controlled at a normal level for a long time”.
